Laboratory results: patent US20090093499A1, “Pharmaceutical composition” (LEK PHARMACEUTICALS D.D., priority 2005, published 2009)

Test: Stress stability of the bulk agent and its mixtures with excipients (degradation products by HPLC)
Type: physicochemical
Protocol: The bulk agent is subjected to stress conditions, such as elevated temperature (40° C. and above), elevated humidity (75% or higher relative humidity, open dish conditions), oxygen atmosphere or solutions with different pH. An HPLC analysis, capable of resolving the agent and its degradation products is then employed, to quantify the amount (given as a mass percentage relative to the agent) of degradation products in the stressed samples. Good chromatographic resolution can be achieved on a C18 reversed phase column with acidic phosphate buffer and an increasing gradient of acetonitrile and tetrahydrofuran. Degradation products are quantified using UV detection at 242 nm. The reporting limit of the degradation products has been set at 0.05%. The % reported for HPLC analysis are in general area %.

[1] = aqueous solution of the agent, buffered to pH = 5 at room temperature (24 hours)
[2] = under oxygen at 60° C. for 14 days

## (E)-7-[4-(4-fluorophenyl)-6-isopropyl-2-[methyl(methylsulfonyl)amino]pyrimidin-5-yl]-(3R, 5S)-3,5-dihydroxyhept-6-enoic acid hemicalcium salt [the agent]
[1]
  amount of lactone (%): 2.30%
  amount of oxidation product (%): <0.05%
[2]
  amount of lactone (%): 0.17%
  amount of oxidation product (%): 0.71%
